Here are results for 40 compounds from US11066413B2, “Aminopyrimidine five-membered heterocyclic compound, and intermediate, preparation method, pharmaceutical composition and application thereof” (GUANGZHOU MAXINOVEL PHARMACEUTICALS CO., LTD., priority 2017, dated 2021).

In the test the target is hA2A receptor (Homo sapiens (Human), UniProt P29274). The test is described as follows: binding affinity IC50 to hA2A receptor ([3H]-CGS 21680 filter binding, Effect Embodiment 2). As to conditions: A2A membrane, [3H]-CGS 21680 (final 25 nM), 90 minutes at 25° C. Here is the method: Evaluation experiment of the binding affinity IC50 of the compounds 1-61 to hA2A receptor
Chain of hA2A receptor (P29274 whole entry): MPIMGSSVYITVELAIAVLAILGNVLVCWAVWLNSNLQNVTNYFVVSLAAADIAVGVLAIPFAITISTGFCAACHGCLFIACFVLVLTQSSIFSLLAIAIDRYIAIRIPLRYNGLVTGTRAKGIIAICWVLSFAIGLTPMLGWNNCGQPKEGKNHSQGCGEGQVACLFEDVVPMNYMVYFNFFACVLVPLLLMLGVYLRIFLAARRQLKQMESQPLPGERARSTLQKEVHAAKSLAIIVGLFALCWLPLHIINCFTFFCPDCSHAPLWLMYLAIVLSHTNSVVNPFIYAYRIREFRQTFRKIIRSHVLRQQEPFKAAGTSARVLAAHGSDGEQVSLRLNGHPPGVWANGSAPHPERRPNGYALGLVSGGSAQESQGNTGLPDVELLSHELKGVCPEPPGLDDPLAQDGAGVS
40 uL of ULTIMA GOLD scintillation fluid was added to each well and the CPM (count per minute) value was read by TopCount.

“2-amino-6-(5-methylfuran-2-yl)-9-(2-(trifluoromethyl)phenyl)-8(9H)-carbonyl-7H-purine [Compound 60]” yielded an IC50 of 0.177 µM.

The compound “2-amino-9-((2-fluorophenyl)methyl)-6-(furan-2-yl)-7-methyl-8,9-dihydro-7H-purinyl-8-one [Compound 40]” returned a 50% inhibitory concentration (IC50) of 0.106 µM.

For `Nc1nc(-c2ccco2)c2c(n1)C(Cc1ccc(Cl)cc1F)OC2=O` (stereo not shown) [Compound 2, 2-amino-7-(4-chloro-2-fluorobenzyl)-4-(furan-2-yl)-5H,7H-furo[3,4-d]pyrimidin-5-one], the IC50 came to 0.0393 µM.

`N#Cc1ccc(CC2OC(=O)c3c(-c4ccco4)nc(N)nc32)cc1F` (stereo not shown) [Compound 3] showed an IC50 of 0.159 µM.

In turn, `N#Cc1ccc(CC2OC(=O)c3c(-c4ccco4)nc(N)nc32)cc1` (stereo not shown) [Compound 4] displayed an IC50 of 0.249 µM.

In turn, `Nc1nc(-c2ccco2)c2c(n1)C(Cc1ccccc1)OC2=O` (stereo not shown) [Compound 5, 2-amino-7-benzyl-4-(furan-2-yl)-5H,7H-furo[3,4-d]pyrimidin-5-one] registered an IC50 of 0.04 µM.

`Nc1nc(-c2ccco2)c2c(n1)[C@@H](Cc1ccccc1)OC2` [Compound 6, (R)-7-benzyl-4-(furan-2-yl)-5,7-dihydrofuro[3,4-d]pyrimidin-2-amine] displayed an IC50 of 0.157 µM.

`Nc1nc(-c2ccco2)c2c(n1)C(Cc1ccc(F)cc1F)OC2=O` (stereo not shown) [Compound 8, 2-amino-7-(2,4-difluorobenzyl)-4-(furan-2-yl)-5H,7H-furo[3,4-d]pyrimidin-5-one]: the IC50 was 0.0107 µM.

`Nc1nc(-c2ccco2)c2c(n1)C(Cc1ccc(F)cc1Cl)OC2=O` (stereo not shown) [Compound 10, 2-amino-7-(2-chloro-4-fluorobenzyl)-4-(furan-2-yl)-5H,7H-furo[3,4-d]pyrimidin-5-one] yielded a concentration for half-maximal inhibition (IC50) of 0.114 µM.

The compound `Nc1nc(-c2ccco2)c2c(n1)C(Cc1ccccc1Cl)OC2=O` (stereo not shown) [Compound 11, 2-amino-7-(2-chlorobenzyl)-4-(furan-2-yl)-5H,7H-furo[3,4-d]pyrimidin-5-one] came in with an IC50 of 0.0321 µM.

Consider `Nc1nc(-c2ccco2)c2c(n1)C(Cc1ccc(Cl)c(F)c1)OC2=O` (stereo not shown) [Compound 12, 2-amino-7-(4-chloro-3-fluorobenzyl)-4-(furan-2-yl)-5H,7H-furo[3,4-d]pyrimidin-5-one], for which the IC50 was 0.0998 µM.

In turn, `CS(=O)(=O)c1ccc(CC2OC(=O)c3c(-c4ccco4)nc(N)nc32)cc1` (stereo not shown) [Compound 13, 2-amino-4-(furan-2-yl)-7-(4-methylsulfonylbenzyl)-5H,7H-furo[3,4-d]pyrimidin-5-one] yielded an IC50 of 0.152 µM.

The compound `NC(=O)c1ccc(CC2OC(=O)c3c(-c4ccco4)nc(N)nc32)cc1` (stereo not shown) [Compound 14, 4-((2-amino-4-(furan-2-yl)-5-oxo-5H,7H-furo[3,4-d]pyrimidin-7-yl)methyl)benzamide] returned an IC50 of 0.218 µM.

In the case of `Nc1nc(-c2ccco2)c2c(n1)C(Cc1ccc(C(F)(F)F)cc1)OC2=O` (stereo not shown) [Compound 15], the 50% inhibitory concentration (IC50) stood at 0.274 µM.

Consider `Nc1nc(-c2ccco2)c2c(n1)C(Cc1ccccc1C(F)(F)F)OC2=O` (stereo not shown) [Compound 16, 2-amino-4-(furan-2-yl)-7-((2-(trifluoromethyl)phenyl)methyl)-5H,7H-furo[3,4-d]pyrimidin-5-one], for which the IC50 turned out to be 0.0157 µM.

`Nc1nc(-c2ccco2)c2c(n1)C(Cc1c(F)cccc1Cl)OC2=O` (stereo not shown) [Compound 17, 2-amino-7-((2-chloro-6-fluorophenyl)methyl)-4-(furan-2-yl)-5H,7H-furo[3,4-d]pyrimidin-5-one] returned an IC50 of 0.0292 µM.

For the compound `Nc1nc(-c2ccco2)c2c(n1)C(Cc1cccc(Cl)c1F)OC2=O` (stereo not shown) [Compound 18, 2-amino-7-((3-chloro-2-fluorophenyl)methyl)-4-(furan-2-yl)-5H,7H-furo[3,4-d]pyrimidin-5-one], the half-maximal inhibitory concentration (IC50) was found to be 0.0737 µM.

Regarding `Cc1ccccc1CC1OC(=O)c2c(-c3ccco3)nc(N)nc21` (stereo not shown) [Compound 19, 2-amino-7-((2-methylphenyl)methyl)-4-(furan-2-yl)-5H,7H-furo[3,4-d]pyrimidin-5-one], the IC50 worked out at 0.0311 µM.

As for `Nc1nc(-c2ccco2)c2c(n1)C(Cc1cc(C(F)(F)F)cc(C(F)(F)F)c1)OC2=O` (stereo not shown) [Compound 20, 2-amino-7-((3,5-di(trifluoromethyl)phenyl)methyl)-4-(furan-2-yl)-5H,7H-furo[3,4-d]pyrimidin-5-one], the IC50 amounted to 0.299 µM.

Compound `Nc1nc(-c2ccco2)c2c(n1)C(Cc1ccc(OC(F)(F)F)cc1)OC2=O` (stereo not shown) [Compound 21, 2-amino-7-((4-(trifluoromethoxyl)phenyl)methyl)-4-(furan-2-yl)-5H,7H-furo[3,4-d]pyrimidin-5-one] registered an IC50 of 0.106 µM.

`Nc1nc(-c2ccco2)c2c(n1)C(Cc1c(F)cccc1F)OC2=O` (stereo not shown) [Compound 22, 2-amino-7-((2,6-difluorophenyl)methyl)-4-(furan-2-yl)-5H,7H-furo[3,4-d]pyrimidin-5-one] showed a half-inhibitory concentration (IC50) of 0.0473 µM.

As for `Nc1nc(-c2ccco2)c2c(n1)C(Cc1ccccc1OC(F)(F)F)OC2=O` (stereo not shown) [Compound 23, 2-amino-7-((2-(trifluoromethoxyl)phenyl)methyl)-4-(furan-2-yl)-5H,7H-furo[3,4-d]pyrimidin-5-one], the IC50 was determined as 0.0039 µM.

As for `Nc1nc(-c2ccccn2)c2c(n1)C(Cc1ccccc1)OC2=O` (stereo not shown) [Compound 24, 2-amino-7-benzyl-4-(pyridin-2-yl)-5H,7H-furo[3,4-d]pyrimidin-5-one], the IC50 amounted to 0.918 µM.

`Cc1ccc(-c2nc(N)nc3c2C(=O)OC3Cc2ccc(F)cc2F)o1` (stereo not shown) [Compound 26, 2-amino-7-((2,4-difluorophenyl)methyl)-4-(5-methylfuran-2-yl)-5H,7H-furo[3,4-d]pyrimidin-5-one] displayed an IC50 of 0.0321 µM.

Regarding `Cc1ccc(-c2nc(N)nc3c2C(=O)OC3Cc2ccccc2F)o1` (stereo not shown) [Compound 27, 2-amino-7-((2-fluorophenyl)methyl)-4-(5-methylfuran-2-yl)-5H,7H-furo[3,4-d]pyrimidin-5-one], the IC50 came out at 0.021 µM.

`Cc1ccc(-c2nc(N)nc3c2C(=O)OC3Cc2ccccc2C(F)(F)F)o1` (stereo not shown) [Compound 28, 2-amino-7-((2-(trifluoromethyl)phenyl)methyl)-4-(5-methylfuran-2-yl)-5H,7H-furo[3,4-d]pyrimidin-5-one] returned an IC50 of 0.0112 µM.

In the case of `Cc1ccc(-c2nc(N)nc3c2C(=O)OC3Cc2cc(F)ccc2F)o1` (stereo not shown) [Compound 29, 2-amino-7-((2,5-difluorophenyl)methyl)-4-(5-methylfuran-2-yl)-5H,7H-furo[3,4-d]pyrimidin-5-one], the IC50 came to 0.252 µM.

The compound `Cc1ccc(-c2nc(N)nc3c2C(=O)OC3Cc2cc(Cl)ccc2F)o1` (stereo not shown) [Compound 30, 2-amino-7-((5-chloro-2-fluorophenyl)methyl)-4-(5-methylfuran-2-yl)-5H,7H-furo[3,4-d]pyrimidin-5-one] had an IC50 of 0.094 µM.

With `Cc1ccc(-c2nc(N)nc3c2C(=O)OC3Cc2c(F)cccc2Cl)o1` (stereo not shown) [Compound 31, 2-amino-7-((6-chloro-2-fluorophenyl)methyl)-4-(5-methylfuran-2-yl)-5H,7H-furo[3,4-d]pyrimidin-5-one], the IC50 stood at 0.0384 µM.

Compound `Cc1ccc(-c2nc(N)nc3c2C(=O)OC3Cc2ccc(F)cc2C(F)(F)F)o1` (stereo not shown) [Compound 32, 2-amino-7-((4-fluoro-2-(trifluoromethyl)phenyl)methyl)-4-(5-methylfuran-2-yl)-5H,7H-furo[3,4-d]pyrimidin-5-one] had an IC50 of 0.0199 µM.

On to `Nc1nc(-c2ccco2)c2c(n1)[C@H](Cc1ccccc1)OC2` [Compound 33, (S)-7-benzyl-4-(furan-2-yl)-5,7-dihydrofuro[3,4-d]pyrimidin-2-amine], for which the IC50 was determined as 0.275 µM.

`Cn1c(=O)n(Cc2ccc(F)cc2F)c2nc(N)nc(-c3ccco3)c21` [Compound 35, 2-amino-9-((2,4-difluorophenyl)methyl)-6-(furan-2-yl)-7-methyl-8,9-dihydro-7H-purinyl-8-one] returned a concentration for half-maximal inhibition (IC50) of 0.0301 µM.

In the case of `Cc1ccc(-c2nc(N)nc3c2C(=O)OC3Cc2ccccc2OC(F)(F)F)o1` (stereo not shown) [Compound 36, 2-amino-7-((2-(trifluoromethoxyl)phenyl)methyl)-4-(5-methylfuran-2-yl)-5H,7H-furo[3,4-d]pyrimidin-5-one], the IC50 came to 0.0281 µM.

`Nc1nc(-c2ccc(Br)o2)c2c(n1)C(Cc1ccccc1OC(F)(F)F)OC2=O` (stereo not shown) [Compound 37, 2-amino-7-((2-(trifluoromethoxyl)phenyl)methyl)-4-(5-bromofuran-2-yl)-5H,7H-furo[3,4-d]pyrimidin-5-one] yielded an IC50 of 0.0674 µM.

`CN1C(=O)c2c(nc(N)nc2-c2ccco2)C1=Cc1ccccc1F` [Compound 38, 2-amino-7-((2-fluorophenyl)methylene)-4-(furan-2-yl)-6-methyl-5H,6H,7H-pyrrolo[3,4-d]pyrimidin-5-one] displayed a half-maximal inhibitory concentration (IC50) of 0.0061 µM.

Compound `Cc1ccc(-c2nc(N)nc3c2C(=O)OC3Cc2ccccc2OC(F)F)o1` (stereo not shown) [Compound 39, 2-amino-7-((2-(difluoromethoxyl)phenyl)methyl)-4-(5-methylfuran-2-yl)-5H,7H-furo[3,4-d]pyrimidin-5-one] registered a 50% inhibitory concentration (IC50) of 0.128 µM.

`Cn1c(=O)n(Cc2ccccc2F)c2nc(N)nc(-c3ccco3)c21` [Compound 41, 2-amino-9-((2-fluorophenyl)methyl)-6-(furan-2-yl)-7-methyl-8,9-dihydro-7H-purinyl-8-one] returned an IC50 of 0.0435 µM.

`Cc1ccc(-c2nc(N)nc3c2C(=O)OC3Cc2ccc(F)cc2F)o1` (stereo not shown) [Compound 42, 2-amino-7-((2,4-difluorophenyl)methyl)-7-deuterium-4-(5-methylfuran-2-yl)-5H,7H-furo[3,4-d]pyrimidin-5-one] showed an IC50 of 0.0874 µM.

For the compound `Cc1ccc(-c2nc(N)nc3c2C(=O)OC3(C)Cc2ccccc2F)o1` (stereo not shown) [Compound 43, 2-amino-7-((2-fluorophenyl)methyl)-7-methyl-4-(5-methylfuran-2-yl)-5H,7H-furo[3,4-d]pyrimidin-5-one], the IC50 was found to be 0.992 µM.

For the compound `CN1C(=O)c2c(-c3ccco3)nc(N)nc2C1Cc1ccccc1F` (stereo not shown) [Compound 44, 2-amino-7-((2-fluorophenyl)methyl)-4-(furan-2-yl)-6-methyl-5H,6H,7H-pyrrolo[3,4-d]pyrimidin-5-one], the IC50 was determined as 0.0646 µM.

By IC50 is commonly meant the concentration that gives 50% inhibition. Low values mean greater potency, high ones weaker potency.
